Laboratory results published in paper PMC9643456, “Matching amino acids membrane preference profile to improve activity of antimicrobial peptides” (Communications Biology, 2022).
≈ marks a conversion by molar mass, not a printed value. Square brackets hold non-standard residues; d marks the D form. Ends that are not written are not given here. Peptide text beside a SMILES is read from it.

Legend:
[1] = Maximum soluble concentration / turbidity; type: physicochemical; conditions: for Maximum soluble concentration in PBS: lyophilized peptide reconstructed in PBS at 200-6.25 μM, visible turbidity checked every 12 h for 5 days, at least twice
Experimental: Supplementary Methods Bacteria preparation, Antimicrobial peptides preparation, Minimal-inhibitory-concentration measurements, Hemolysis-activity measurements, Tryptophan fluorescence measurements, Isothermal titration calorimetry measurements, Bacteria membrane ion permeation measurements, Outer-inner membrane permeation, Field-emission scanning electron microscopy and Antimicrobial kinetics were performed as described in Materials and Methods. Liposome (LUV) preparation. Bacterial-membrane-mimic DMPC/DMPG unilamellar vesicles (LUV) and mammalian- membrane-mimic PC/cholesterol vesicles with 100-nm diameters were prepared by extrusion. LiposoFast Liposome Factory Basic unit with stabilizer (Avestin, Ottawa, Canada) was used to extrude liposomes 50 times through a polycarbonate membrane filter (pore diameter, 100 nm; filter diameter, 0.75 inches) (Avestin). […] rac-(1-glycerol)) (sodium salt) (DMPG) (Avanti, Alabama, USA); 1,2-Dimyristoyl-sn-glycero-3-phosphocholine (DMPC) (Avanti); and cholesterol (Sigma, Darmstadt, Germany) were used. For circular dichroism, isothermal titration calorimetry, tryptophan fluorescence, and dynamic light scattering experiments, liposomes were reconstructed and resuspendedwith phosphate-buffered saline (PBS; Welgene Inc, Gyeongsangbuk-do, Korea). For calcein-permeation tests, liposomes were reconstructed with calcein solutions (80 mM, 40 mM, 30 mM, 20 mM, and 10 mM) (Sigma, Darmstadt, Germany), purified with Sephadex-G50 columns (Pharmacia biotech, Stockholm, Sweden), and resuspended with PBS. Maximum-soluble -concentration measurements. […] turbidity with PBS. The lowest concentration of peptide without visible turbidity was determined to be the maximu m soluble concentration. Each experiment was performed at least twice. Circular dichroism (CD) spectrum. DMPC/PG -liposome, PC/cholesterol -liposome, and peptide stock solutions were diluted in PBS. For circular dichroism, PBS with neither liposome nor peptides was also prepared. Liposomes and peptides were mixed to […] Samples were transferred into type J/1 cuvettes (Jasco, Tokyo, Japan). Cuvettes were placed into the J -815 circular -dichroism spectrometer (Jasco, Tokyo, Japan). Measurement parameters were as follows: wavelength, 190 -260 nm; data pitch, 0.2 nm; bandwidth, 1.00 nm; […] Each experiment was performed in triplicate. Data below 197 nm was not analyzed because o f experimental difficulties in obtaining those spectra. Each experiment was performed at least twice. Artificial membrane calcein permeation measurements. Calcein fluorescence was used to measure peptide -induced liposome permeation. Calcein solutions (10 mM, 20 mM, or 60 mM) containing PC/PG liposomes and peptides were diluted in PBS ( ×1, ×2, ×3, ×8). […] Liposome solutions (180 μl) were transferred to wells of black, clear -bottomed 96 -well plates (Costar, New York, USA). Peptide […] Liposome-containing plates and peptide -containing plates were inserted into a Flexstation 3 Multi -Mode Microplate Reader (Molecular Devices, California, USA). Peptide solutions (20 μl) were transferred and mixed with liposome solution automatical ly after 30 sec. […] Measurement parameters were as follows: excitation, 490 nm; emission, 520 nm; temperature, 37 °C. […] was transferred and mixed with the liposome -peptide solu tions automatically after 300 sec to acquire fluorescence at maximum leakage. […] Fluorescence measured between 0 -300 sec after addition of 0 μg/ml peptide was considered the baseline. Each experiment was performed at least twice. Dynamic light scattering (DLS) measurements. Dynamic light scattering was used to measure peptide -induced liposome volume changes. PC/PG -liposome stock solutions and peptides were resuspended in PBS. Liposomes and peptides were mixed to […]

[2] = system: MDR A. baumannii; experiment: microbe, parasite or virus in culture; conditions: for MIC in 0.2% albumin and 0.01% AcOH added CLSI standard condition, MDR A. baumannii: CAMHB plus 0.2% bovine serum albumin and 0.01% acetic acid, values marked * in Table 2; for Minimum inhibitory concentrations, MDR A. baumannii: CLSI broth microdilution, CAMHB with 50 mg/L Ca2+, 10 mg/L Mg2+, 5 × 10^5 CFU/ml, 18 h 37 °C, triplicate, strain ATCC BAA-1605
Procedure, shortened: (§1)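 Broth microdilution per CLSI in cation-adjusted Mueller–Hinton broth with calcium (50 mg/L) and magnesium (10 mg/L); midlog bacteria at final 5 × 10^5 CFU/ml, 18 h at 37 °C. MIC is the lowest peptide concentration without visible turbidity; triplicate, with meropenem and colistin as control antibiotics.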

[3] = system: MDR S. aureus; experiment: microbe, parasite or virus in culture; conditions: for MIC in 0.2% albumin and 0.01% AcOH added CLSI standard condition, MDR S. aureus: CAMHB plus 0.2% bovine serum albumin and 0.01% acetic acid, values marked * in Table 2; for Minimum inhibitory concentrations, MDR S. aureus: CLSI broth microdilution, CAMHB with 50 mg/L Ca2+, 10 mg/L Mg2+, 5 × 10^5 CFU/ml, 18 h 37 °C, triplicate, strain KCCM 40510; for MIC at TM potential condition, S. aureus KCCM 40510: bacteria OD 0.1 (5 x 10^7 cfu/ml), CAMHB, 1% DMSO
Procedure, shortened: as §1

[4] = system: MDR E. faecalis; experiment: microbe, parasite or virus in culture; conditions: for MIC in 0.2% albumin and 0.01% AcOH added CLSI standard condition, MDR E. faecalis: CAMHB plus 0.2% bovine serum albumin and 0.01% acetic acid, values marked * in Table 2; for Minimum inhibitory concentrations, MDR E. faecalis: CLSI broth microdilution, CAMHB with 50 mg/L Ca2+, 10 mg/L Mg2+, 5 × 10^5 CFU/ml, 18 h 37 °C, triplicate, strain ATCC 51575
Procedure, shortened: as §1

| Compound | Maximum soluble concentration in PBS [1] | MIC in 0.2% albumin and 0.01% AcOH added CLSI standard condition, MDR A. baumannii [2] | Minimum inhibitory concentrations, MDR A. baumannii [2] | MIC in 0.2% albumin and 0.01% AcOH added CLSI standard condition, MDR S. aureus [3] | Minimum inhibitory concentrations, MDR S. aureus [3] | Increase of MIC when the S. aureus concentration was increased 200-fold [3] | MIC in 0.2% albumin and 0.01% AcOH added CLSI standard condition, MDR E. faecalis [4] | Minimum inhibitory concentrations, MDR E. faecalis [4] | Turbidity in PBS ([1]; 10 mg/ml peptide in PBS) | MIC at TM potential condition, S. aureus KCCM 40510 [3] | MIC at different cfu/ml, MDR A. baumannii ([2]; 1 × 10^10 cfu/ml (x2000)) | MIC at different cfu/ml, MDR A. baumannii ([2]; 2 × 10^8 cfu/ml (x400)) | MIC at killing kinetics condition, A. baumannii ATCC BAA 1605 ([2]; 5 x 10^5 cfu/ml, PBS) | MIC at different cfu/ml, MDR S. aureus ([3]; 1 × 10^10 cfu/ml (x2000)) | MIC at different cfu/ml, MDR S. aureus ([3]; 2 × 10^8 cfu/ml (x400)) | MIC at killing kinetics condition, S. aureus KCCM 40510 ([3]; 5 x 10^5 cfu/ml, PBS) | MIC at different cfu/ml, MDR E. faecalis ([4]; 2 × 10^8 cfu/ml (x400)) | MIC at killing kinetics condition, E. faecalis ATCC 51575 ([4]; 5 x 10^5 cfu/ml, PBS) |
| --- | --- | --- | --- | --- | --- | --- | --- | --- | --- | --- | --- | --- | --- | --- | --- | --- | --- | --- |
| WLVWIWRRR-NH2 [LWCopW29] | > 200 µM | 0.31 µM | 1.25 µM | 1.25 µM | 5 µM | twofold | 1.25 µM | 5 µM |  |  |  |  |  |  |  |  |  |  |
| CC[C@@H](C)[C@@H](NC(=O)[C@@H](Cc1c[nH]c2ccccc12)NC(=O)[C@@H](CCCNC(=N)N)NC(=O)[C@@H](CCCNC(=N)N)NC(=O)[C@H](N)CCCNC(=N)N)C(=O)N[C@H](Cc1c[nH]c2ccccc12)C(=O)N[C@@H](C(=O)N[C@@H](C(=O)N[C@H](Cc1c[nH]c2ccccc12)C(=O)N[C@H](CCCCN)C(N)=O)[C@H](C)CC)C(C)C [WCopW43] (H-[dR][dR][dR][dW][dI][dW][dV][dI][dW][dK]-NH2) |  |  | 0.63 µM (≈ 0.944 µg/mL) |  | 0.63 µM (≈ 0.944 µg/mL) |  |  |  | turbid |  |  |  |  |  |  |  |  |  |
| RLWWRWIVR-NH2 [HLWCopW29-4] | > 200 µM | 20 µM |  | 20 µM |  |  | 20 µM |  |  | > 20 µM |  |  |  |  |  |  |  |  |
| CC[C@@H](C)[C@@H](NC(=O)[C@@H](Cc1c[nH]c2ccccc12)NC(=O)[C@H](NC(=O)[C@@H](CC(C)C)NC(=O)[C@H](N)Cc1c[nH]c2ccccc12)C(C)C)C(=O)N[C@H](Cc1c[nH]c2ccccc12)C(=O)N[C@H](CCCNC(=N)N)C(=O)N[C@H](CCCNC(=N)N)C(=O)N[C@H](CCCNC(=N)N)C(N)=O [WCopW29] (H-[dW][dL][dV][dW][dI][dW][dR][dR][dR]-NH2) | > 200 µM |  |  | 0.31 µM | 1.25 µM (≈ 1.71 µg/mL) | twofold | 0.31 µM | 1.25 µM (≈ 1.71 µg/mL) |  | 2 µM (≈ 2.74 µg/mL) | 10 µM (≈ 13.7 µg/mL) | 2.5 µM (≈ 3.42 µg/mL) | 0.63 µM (≈ 0.863 µg/mL) | 5 µM (≈ 6.85 µg/mL) | 2.5 µM (≈ 3.42 µg/mL) | 1.25 µM (≈ 1.71 µg/mL) | 2.5 µM (≈ 3.42 µg/mL) | 1.25 µM (≈ 1.71 µg/mL) |
| Colistin |  | ≤ 0.15 µM |  |  |  |  |  |  |  |  |  |  |  |  |  |  |  |  |
